According to patent US10227362B2 (priority 2015, dated 2019):
Converted amounts (≈) assume the structure as drawn.

What was measured:
[1] = test system: Mycobacterium bovis BCG strain TMC1019 (ATCC35737); assay: microbe, parasite or virus in culture; assay type: cell-based; conditions: Mycobacterium tuberculosis variant bovis BCG, 24 h, read-out: M. bovis ATCC35737 (ug/mL)
[2] = test system: Mycobacterium tuberculosis H37Rv strain; assay: In vitro MIC against M. tuberculosis H37Rv strain (MABA, Alamar Blue); assay type: cell-based
Experimental: Part I: The in vitro efficacy of anti-Mycobacterium tuberculosis compounds was tested using H37Rv strain.
On the day of the test, the compound was dissolved in pure DMSO (Sigma 276855-2L) to a concentration of 10 mg/mL which was used as the mother liquor of the compound. 30 μL of DMSO was added to wells of column 2 to 11 s of the v-bottom 96-well plates (Axygen-wipp02280). 30 μL of the mother liquor of the compound was added to the well of column 2, after mixing, 30 μL was taken from the well of column 2 and added to the well of column 3, and then pipetted and mixed. The operation was taken to column 10. Column 11 was free of medicine and contained only 30 μL of DMSO. This was the “motherplate” of the compound. From column 2 to 11, the corresponding concentration of the compound was 5, 2.5, 1.25, 0.625, 0.3125, 0.156, 0.078, 0.039, 0.02, 0 mg/mL. […] A flat bottom 96-well plate (Greiner 655090) was used as a “daughterplate”. 98 μL of 7H9 (Sigma M0178) medium was added to the wells of all daughterplates. 2 μL of compound was extracted from the motherboard and added to the corresponding daughter plate. Line A and H, column 1 and 12 of the daughterplate contained only 7H9 medium.
The H37Rv strain in the glycerol cryovial was inoculated into 7H9 medium containing 0.05% Tween 80 and cultured for 4 weeks at 37° C. in a shaker with 200 rpm. The bacterial liquid was washed twice with 7H9 medium containing 0.05% Tween 80 and resuspended in the same medium. The absorbance of the bacteria liquid was adjusted to OD550=0.4-0.5 using the same medium. The bacteria liquid was sub-packed in microcentrifuge tubes and stored at −80° C. Storage time was no more than 1 month. On the day of the test, the packaged bacteria liquid would be […]. The bacteria liquid was diluted 20 times and then diluted 50 times with 7H9 medium, and a total of 1000 times dilution. The bacteria liquid would be used to inoculate on the daughterplate. 100 μL of bacterial liquid was inoculated in each well of the daughterboard, 100 μL 7H9 medium was added to column 12 and without bacteria liquid.
The test daughterplate was placed in an incubator at 37° C. and the humidity was maintained at >80%. A week later, 12.5 μL of 7H9 medium containing 20% Tween 80 and 20 μL of Alamar Blue (Invitrogen DAL1100) were added to the well of a column 1 containing bacteria and the well of a column 12 without bacteria every day, and then continue to incubate for 24 hours and observed. When the added Alamar Blue was reduced to pink in 24 hours by the bacteria liquid in the well of column 1, the 7H9 medium containing 20% Tween 80 and Alamar Blue were added to all wells on the test plate and the fluorescence values were measured after incubation for 24 hours at 37° C.

M. tuberculosis H37R = assay: M. tuberculosis LORA MIC; assay type: cell-based; conditions: Mycobacterium tuberculosis, read-out: M. tuberculosis H37R LORA (MIC) (ug/mL)
Vero Cell = assay: Vero cell cytotoxicity; assay type: cell-based; conditions: Chlorocebus sabaeus, Vero cells
Kinetic solubility test = assay type: physicochemical; conditions: buffer, 22 °C, aqueous buffer, kinetic from dmso stock, pH 2.0, room temperature
Experimental: 1. […] The test compound and the control compound (10 mM DMSO mother liquor, 10 uL per well) were added to a 96-well plate containing 490 uL of buffer per well. After vortexing for 2 minutes, the plates were incubated on the shaker at room temperature (22±2° C.) for 24 hours. The 200 uL sample was then transferred to a MultiScreen filter plate (polycarbonate film), filtered through a millipore vacuum manifold, and the filtrate was collected. The concentration of the compound in the filtrate was determined by HPLC-UV. Three different concentrations of UV standard solution and solubility test samples were injected successively. Each sample was injected 2 times, and the concentration was taken into the standard curve, and the average value was calculated.

P-glycoprotein (MDR1) = assay: MDR1-MDCK cell bi-directional permeability; assay type: in vitro ADME; conditions: dog; for Papp A→B at 2.5 h, 2 μM: A to B, HBSS pH 7.4, read-out: MDR1-MDCK Monolayer Cell Bi-directional Permeability Parameters A to B; for Papp B→A at 2.5 h, 2 μM: B to A, HBSS pH 7.4, read-out: MDR1-MDCK Monolayer Cell Bi-directional Permeability Parameters B to A; for efflux ratio at 2.5 h, 2 μM: HBSS pH 7.4, read-out: MDR1-MDCK Monolayer Cell Bi-directional Permeability Parameters Efflux Ratio
Source text: 2. MDR1-MDCK cell bi-directional permeability evaluation experiment: MDR1-MDCK cells that permanently express human P-glycoprotein (P-glycoprotein) were planted on 96-well Insert cell plates and cultured for 4 to 7 days to form aggregated monolayer cells. The assessment of unidirectional (A→B) permeability of the fenoterol (low permeability marker) and propranolol (high permeability marker) and the bi-directional permeability of Digoxin (a P-glycoprotein substrate) were used to verify the quality of monolayer cells. The three control compounds do two complex wells.
The standard conditions for the transport experiments of the test compound were as follows: • Test concentration: 2 μM (DMSO≤1%); • Repetition: n=3; • Direction: bidirectional transport consisting of two directions: A→B and B→A; • Incubation time: single time point, 2.5 hours; • Transport buffer: HB SS, pH 7.4; • Incubation conditions: 37° C., 5% CO2, 95% relative humidity.
After the incubation, the sample solutions taken from the donor wells and the receive wells were immediately mixed with a cold acetonitrile solution containing the internal standard. And the amount of accumulation of intracellular compounds was measured by lysing the cells with a cold acetonitrile solution containing the internal standard. The concentrations of the test compound in all samples (including the initial administration solution, the supernatant of donor wells, the receiver solution, the cell lysate) were analyzed by the LC/MS/MS method. The concentration of the test compound was expressed by the ratio of its peak area to the internal standard peak area.

[3] = Pharmacokinetics in vivo in mice; conditions: CD-1 male mice; for Pulmonary Drug Concentration (nM/Kg) PO 1 (h): lung, 1 h after administration; for Cmax: mouse, plasma
Experimental: The pharmacokinetic characteristics of rodents after intravenous and oral administration of the compound were tested in a standard protocol. Specifically, the candidate compounds of the experiment were injected intravenously and administered orally for 7 to 10 weeks old CD-1 male mice. The oral preparation was a 0.5% suspension of methylcellulose, and the intravenous preparation was a clear solution of ethanol/DMSO/polyethylene glycol 400/pure water (10:10:50:30). Plasma and lung samples were collected and analyzed by the LC-MS/MS method and the pharmacokinetic parameters were calculated.

| SMILES | MIC [1] [µg/mL] | MIC [2] [µg/mL] | MIC (M. tuberculosis H37R) [µg/mL] | IC50 (Vero Cell) [µg/mL] | solubility kinetic at 24 h (Kinetic solubility test) [µM] | Papp A→B at 2.5 h, 2 μM (P-glycoprotein (MDR1)) [×10⁻⁶ cm/s] | Papp B→A at 2.5 h, 2 μM (P-glycoprotein (MDR1)) [×10⁻⁶ cm/s] | efflux ratio at 2.5 h, 2 μM (P-glycoprotein (MDR1)) | Pulmonary Drug Concentration (nM/Kg) PO 1 (h) [3] [nM/kg] | drug concentration in lung relative to the reference compound (OPC-67683) ([3]; oral, 1 hour after administration) | Cmax ([3]; oral) [nM] |
| --- | --- | --- | --- | --- | --- | --- | --- | --- | --- | --- | --- |
| CC1(CN2CCc3nc(-c4ccccc4)ccc3C2)Cn2cc([N+](=O)[O-])nc2O1 (single isomer, unassigned) [Compound 1B, 2-methyl-6-nitro-2-((2-phenyl-7,8-dihydro-1,6-naphthyridin-6(5H)-yl)methyl)-2,3-dihydroimidazo[2,1-b]oxazole] | < 1 | < 1 | 1 to 32 (≈ 2.55 to 81.8 µM) | > 32 | 130 (≈ 50.7 µg/mL) | 16.8 | 22.7 | 1.35 | – | – | – |
| C[C@]1(CN2CCc3nc(-c4ccc(F)cc4)ccc3C2)Cn2cc([N+](=O)[O-])nc2O1 [Compound 7, (S)-2-((2-(4-Fluorophenyl)-7,8-dihydro-1,6-naphthyridin-6(5H)-yl)methyl)-2-methyl-6-nitro-2,3-dihydroimidazo[2,1-b]oxazole] | < 1 | < 1 | 1 to 32 (≈ 2.44 to 78.2 µM) | > 32 | 143 (≈ 58.7 µg/mL) | 17.7 | 19.3 | 1.09 | 16147 | more than 9 times | 6720 |
| C[C@]1(CN2Cc3nc(-c4ccc(F)cc4)sc3C2)Cn2cc([N+](=O)[O-])nc2O1 [Compound 69, (S)-2-((2-(4-Fluorophenyl)-4H-pyrrolo[3,4-d]thiazol-5(6H)-yl)methyl)-2-methyl-6-nitro-2,3-dihydroimidazo[2,1-b]oxazole] | < 1 | < 1 | 1 to 32 (≈ 2.49 to 79.7 µM) | > 32 | 39.3 (≈ 15.8 µg/mL) | 20.9 | 15.8 | 0.76 | – | – | – |
| C[C@]1(CN2Cc3nc(-c4ccc(F)cc4)oc3C2)Cn2cc([N+](=O)[O-])nc2O1 [Compound 89, (S)-2-(4-Fluorophenyl)-5-((2-methyl-6-nitro-2,3-dihydroimidazo[2,1-b]oxazol-2-yl)methyl)-5,6-dihydro-4H-pyrrolo[3,4-d]oxazole] | < 1 | < 1 | – | > 32 | 100 (≈ 38.7 µg/mL) | 25.9 | 18.5 | 0.71 | – | – | – |
| C[C@]1(COc2ccc(N3CCC(Oc4ccc(OC(F)(F)F)cc4)CC3)cc2)Cn2cc([N+](=O)[O-])nc2O1 [OPC-67683, delamanid, reference compound] | – | – | – | – | – | 0.09 | 0.17 | – | 1677 | – | 4740 |
